# Test results published in patent US7781565B2 (priority 2006, dated 2010).
# Entries after “also recorded” stand apart in the source; their conditions may differ.
# Test system: NCI-60 cell lines
# Assay type: cell-based, human
Substance,Cell Line the peptide is associated with (peptide recovered from phage library selection on this NCI-60 cell line),Cell Line (NCI-60 cell line the peptide is associated with),Cell Line (NCI-60 cell line the peptide and its motif are associated with),Cell Line with which the peptide (and its tripeptide motif) is associated
GVAIGRL,CAIK-1 Renal,–,–,–
SSRGGSS,–,MALME-3M Melanoma,–,–
DTPAGRL,MDA-MB-231 Breast,–,–,–
LKVRGVL,–,HT-29 Colon,–,–
AGPSRGP,–,–,UACC 257 Melanoma,–
IDLVSPG,–,–,OVCAR-8 Ovarian,–
SHRSSTG,T-47D Breast,–,–,–
TRDGVRW,RXF393 Renal,–,–,–
MRYELRS,SN12C Renal,–,–,–
WQVSGVR,–,KM-12C Colon,–,–
LGLRAFV,–,–,–,H322-Lung
ANGVLEL,–,–,–,Molt-4-Leukemia
DLDGRVV,–,COLO-205-Colon,–,–
DVPGVRF,–,–,–,EKVX-Lung
VLRSGEL,–,SF-295 CNS,–,–
GGLSNVV,–,SW620-Colon,–,–
LLRGLRP,TK-10 Renal,–,–,–
ARGRDEG,UO31 Renal,–,–,–
SEDEGAG,–,–,–,H322-Lung
GDRRLVS,NCI/ADR-RES Breast,–,–,–
RAGSRYI,–,–,SK-MEL-28 Melanoma,–
FSPRGSV,–,SNB-19 CNS; also recorded: SF-539 CNS,–,–
FSLVSFV,–,–,SK-MEL-2 Melanoma,–
GVLEGRR,–,–,UACC 257 Melanoma,–
ATLDGVS,–,–,SK-OV-3-3 Ovarian,–
PTVSAGL,NCI/ADR-RES Breast,–,–,–

Substance,Cell Line the peptide is associated with (peptide recovered from phage library selection on this NCI-60 cell line),Cell Line (NCI-60 cell line the peptide is associated with),Cell Line (NCI-60 cell line the peptide and its motif are associated with),Cell Line with which the peptide (and its tripeptide motif) is associated
TFAGLAQ,BT-549 Breast,–,–,–
AGLALTV,–,MALME-3M Melanoma,–,–
SGGRFVP,MDA-MB-231 Breast,–,–,–
LGGLSER,–,–,SK-OV-3-3 Ovarian,–
AGRFGAR,–,–,OVCAR-8 Ovarian,–
DLRRAGS,–,SW620-Colon,–,–
TRLSFRH,–,–,SK-OV-3-3 Ovarian,–
GVGGLSS,HS 578 T Breast,–,–,–
RYGTAGS,SN12C Renal,–,–,–
TGGLHWY,TK-10 Renal,–,–,–
DAVRGPS,–,–,IGROV1 Ovarian,–
LGGLGLS,–,–,OVCAR-5 Ovarian,–
GAGRGDR,–,SF-295 CNS,–,–
SRLSYRA,–,–,786-0 Renal,–
RAVLELW,–,–,SK-MEL-28 Melanoma,–
GLWAAVL,TK-10 Renal,–,–,–
ARAIGLG,–,–,–,Molt-4-Leukemia
PAGRMLS,–,–,SK-MEL-2 Melanoma,–
FGGRSLS,–,SNB-75 CNS,–,–
LGTAVSS,–,SF-268 CNS,–,–
SYWVGSS,MCF-7 Breast,–,–,–
SSLLSSL,–,–,SK-MEL-2 Melanoma,–
WLLRSWS,CAIK-1 Renal,–,–,–
SLRGSEG,–,–,–,Hop-92-Lung
GRLRLRV,–,SF-295 CNS,–,–
RANGVLV,–,–,–,H23-Lung

Substance,Cell Line the peptide is associated with (peptide recovered from phage library selection on this NCI-60 cell line),Cell Line (NCI-60 cell line the peptide is associated with),Cell Line (NCI-60 cell line the peptide and its motif are associated with),Cell Line with which the peptide (and its tripeptide motif) is associated
WLLSSEI,–,–,PC3 Prostate,–
YATLGSS,–,–,PC3 Prostate,–
VYWWGVS,A498 Renal,–,–,–
GLLSGGT,–,–,IGROV1 Ovarian,–
LYGVRYG,–,–,–,RPMI-8226-Leukemia
ILSDLVS,SN12C Renal,–,–,–
TRYSLRS,TK-10 Renal,–,–,–
AVHSGRL,ACHN Renal,–,–,–
GHGSGSR,ACHN Renal,–,–,–
GALRVPW,–,HCT-15 Colon,–,–
AVWRLSH,–,–,–,H322-Lung
VRGGLTG,–,HT-29 Colon,–,–
YDGLVSG,–,COLO-205-Colon,–,–
AGRPGGY,–,–,PC3 Prostate,–
RWLSLLS,–,MALME-3M Melanoma,–,–
VLRGSTP,–,–,PC3 Prostate,–
FHIWGGR,MDA-MB-231 Breast,–,–,–
SVGAVGG,–,–,–,A549-Lung
NPGLVWN,MDA-MB-231 Breast,–,–,–
DAGRTID,–,–,–,Hop-62-Lung
ERYYLRS,MCF-7 Breast,–,–,–
EVRSRGS,–,–,–,EKVX-Lung
IAAVWRS,–,HCT-116 Colon,–,–
NLADGSV,–,–,–,H322-Lung
FFGRVGI,–,–,–,Molt-4-Leukemia
DVIARGW,–,–,UACC 257 Melanoma,–

Substance,Cell Line the peptide is associated with (peptide recovered from phage library selection on this NCI-60 cell line),Cell Line (NCI-60 cell line the peptide is associated with),Cell Line (NCI-60 cell line the peptide and its motif are associated with),Cell Line with which the peptide (and its tripeptide motif) is associated
GGSRLLL,–,–,–,RPMI-8226-Leukemia
CVGLGCH,–,–,OVCAR-4 Ovarian,–
SWRPLVS,–,–,–,Hop-62-Lung
FAGRVPS,–,–,–,RPMI-8226-Leukemia
RGSRTGP,–,U251 CNS,–,–
VSGDGGS,–,SNB-75 CNS,–,–
GVRYLRT,–,HCT-116 Colon,–,–
RNPGRLA,–,HT-29 Colon,–,–
AGGPTKY,–,–,–,SR Leukemia
FSSKRGV,–,–,–,RPMI-8226-Leukemia
RRLSYRD,–,–,–,RPMI-8226-Leukemia
GSTLLSR,–,LOX-IMVI Melanoma,–,–
GRMLVSG,–,–,OVCAR-4 Ovarian,–
GAVNTPA,–,–,SK-MEL-2 Melanoma,–
LNAGGSG,–,–,DU-145 Prostate,–
RRLSYRE,–,–,OVCAR-8 Ovarian,–
ARGTMTG,ACHN Renal,–,–,–
TAGGAVG,–,SW620-Colon,–,–
ALVSRRG,–,–,–,Molt-4-Leukemia
AVALGGS,–,–,UACC 257 Melanoma,–
LVSSGSK,–,–,–,HL-60-Leukemia
GGRELKA,–,–,PC3 Prostate,–
ELGLRVP,–,–,OVCAR-8 Ovarian,–
TDGVRAF,–,–,UACC 257 Melanoma,–
GGSIDCC,SN12C Renal,–,–,–
VLGMRSS,–,–,–,SR Leukemia

Substance,Cell Line the peptide is associated with (peptide recovered from phage library selection on this NCI-60 cell line),Cell Line (NCI-60 cell line the peptide is associated with),Cell Line (NCI-60 cell line the peptide and its motif are associated with),Cell Line with which the peptide (and its tripeptide motif) is associated
AAYWGPS,A498 Renal,–,–,–
AGLLSDV,NCI/ADR-RES Breast,–,–,–
GVIGRGS,–,–,UACC62 Melanoma,–
GVRSITL,ACHN Renal,–,–,–
QGRVNVK,–,SNB-19 CNS; also recorded: SF-539 CNS,–,H226-Lung
AGRTGVG,–,–,–,SR Leukemia
LLGIGGS,–,–,SK-MEL-28 Melanoma,–
RSGRVSN,–,–,SK-OV-3-3 Ovarian,–
SLGGRTF,–,SNB-75 CNS,–,–
FGLRNSR,–,–,–,HL-60-Leukemia
GRVTGGR,–,HCT-15 Colon,–,–
VLSAVSS,–,SNB-19 CNS; also recorded: SF-539 CNS,–,–
FISAGGW,MDA-MB-231 Breast,–,–,–
GTFGVLG,–,–,–,Hop-62-Lung
MERVAGR,SN12C Renal,–,–,–
LWFELVS,MCF-7 Breast,–,–,–
LELGRLL,–,–,–,HL-60-Leukemia
DENRAGL,–,–,DU-145 Prostate,–
KGDGSVR,–,–,SK-OV-3-3 Ovarian,–
AGGFRFI,–,–,SK-MEL-2 Melanoma,–
DVWVAVS,–,–,OVCAR-4 Ovarian,–
GGLPVQM,–,–,PC3 Prostate,–
LGASLLV,RXF393 Renal,–,–,–
GLWYRAV,–,–,SK-MEL-28 Melanoma,–
GEALGLG,–,–,SK-MEL-2 Melanoma,–
PRLSDKS,–,–,SK-MEL-28 Melanoma,–
